Publication PMC8170916, “Sublingual AKBA Exerts Antidepressant Effects in the Aβ-Treated Mouse Model” (Biomolecules, 2021)

Legend:
[1] = Cerebral AKBA quantification by GC-MS/IT after sublingual or intranasal administration; assay type: in vivo, mice; conditions: 5 mg/kg
Experimental: (§1) AKBA (Cayman Chemical Company) was dissolved in sunflower oil, this vehicle was chosen in order to maintain a better tasting and higher density of the final solution thus reducing reflux through the digestive tract. […] Ten µL of the solution (or vehicle alone) was sublingually administered to mice. For intranasal administration, requiring more hydrophilic solution, AKBA was dissolved in DMSO and saline (1:3, v/v), and given to mice at the same final dose of 5 mg/kg. Cerebral AKBA was quantified in a separate subset of mice at 5, 15 and 30 min after its administration, either sublingually or intranasally.
After administration, whole brains were put in 1 mL of a solution of chloroform/methanol (1:1 v/v), sonicated and then homogenates were centrifuged at 4 °C for 20 min (10,000 rpm). The pellets were then removed, and the remaining supernatants were dried on sodium sulphate anhydrous, filtered with 0.20 µm PTFE syringe filters and used for chemical analysis. The quantification of 3-O-acetyl-11-keto-β-boswellic acid (AKBA) was performed by using GC-MS/IT equipment composed of a gas chromatograph GC-7890B (Agilent Technologies, Santa Clara, CA, USA) coupled with an ion trap mass spectrometer IT-240 (Agilent Technologies).
The gas chromatograph was equipped with a VF-5 ms (Agilent J&W GC Columns) capillary column, 30 m × 0.25 mm i.d. × 0.25 µm. The column oven was set at 50 °C for 1 min after injection; then the temperature was increased from 50 °C to 300 °C with a ramp of 5 °C/min and a hold time of 10 min. The purge process was performed at the end of each run, increasing the oven temperature from 300 °C to 325 °C at 10 °C/min and a hold time of 1.5 min. The total time for each run was approximately 65 min. The injection volume was 2 µL (splitless) with a continuous flow rate of 1 mL/min of ultra-high purity helium (BIP®) and an injector temperature of 250 °C.
The MS electron multiplier voltage was set at 1450 V, and an ionization time of 65,000 µs was used, running in the electron impact (EI) mode. The transfer line, ion trap and manifold temperatures were set at 270 °C, 180 °C and 70 °C, respectively. The mass spectrometer firstly operated in full scan mode (50–700 m/z) with the ionizing voltage at 70 eV. […] Peaks at m/z 408 and m/z 393 were identified as M-AcOH-CO2 and M-AcOH-CO2-CH3. The peak at m/z 273 was identified as fragment A, resulting from retro-Diels–Alder fragmentation, while the peak at m/z 232 was identified as fragment B, generated from McLafferty fragmentation. These characteristic fragments were selected as a mass target to develop the MS acquisition method operating in single ion scan mode (SIS) to improve the LOD and LOQ for AKBA quantification. […]

[2] = test system: Aβ-treated mice; experiment: Tail suspension test in Aβ-treated mice; assay type: in vivo; conditions: mice 7 days after icv Aβ 4 µM, sublingual AKBA 5 mg/kg 30 min before, Aβ vs SHAM
[3] = test system: mice; experiment: Open field test (locomotion); assay type: in vivo; conditions: 30 min after AKBA or vehicle administration
Experimental: Mice were placed in an open field arena and allowed to explore for 30 min [25]. After each trial, the arena floor was cleaned with 70% ethanol to avoid inter-assay bias. The movements of mice were video recorded and analyzed by ANY-maze tracking software (Ugo Basile-Varese, Gemonio, Italy). Locomotion was evaluated through total crossing measurements.

[4] = test system: NF-kB p65; experiment: Western blotting quantification of NF-kB p65 in PFC and HIPP; assay type: in vivo; conditions: mice 7 days after icv Aβ 4 µM, sublingual AKBA 5 mg/kg 30 min earlier
Experimental: All behavioral experiments were conducted at 5 or 30 min after sublingual administrations of AKBA or vehicle in either SHAM or Aβ-treated mice. Based upon behavioral outcomes observed, neurochemical and biochemical quantifications were performed 30 min after AKBA or vehicle administration in either SHAM or Aβ-treated mice.
Anesthetized animals were sacrificed by cervical dislocation. Brains were immediately removed and kept on ice for dissection of PFC and HIPP, according to the atlas of Paxinos and Franklin. Tissues were frozen and stored at −80 °C until analyses were carried out. Samples (PFC and HIPP) were homogenized (1:10 w/v) at 4 °C using a PBS buffer containing a 1:100 protease and phosphatase inhibitor cocktail (HALT inhibitors, Thermo Fisher Scientific, Cleveland, OH, USA) for biochemical analyses or perchloric acid 0.1 M for neurochemical analyses. Homogenates were centrifuged at 13,000× g at 4 °C for 20 min, and supernatants were used for further determinations.
The total amount of proteins was measured in homogenates by using Pierce BCA Assay (Thermo Fisher Scientific, Cleveland, OH, USA). Forty µg of the total lysate protein were separated by SDS-PAGE precast gels (Bio-Rad Laboratories Inc., Segrate (MI), Italy), transferred onto nitrocellulose membranes (Bio-Rad Laboratories Inc, Segrate (MI), Italy) and then blocked for 1 h in blocking buffer (SigmaAldrich, Milan, Italy). Rabbit polyclonal antibody against GFAP (Dako Products, USA; 1:2000), rabbit monoclonal antibody against CD11b (Abcam, Cambridge, MA, USA; ab133357, 1:1000) and mouse monoclonal antibody against NF-kB p65 (Santa Cruz Biotechnology, Dallas, Texas, USA; 1:2000) were used to incubate the membranes overnight at 4 °C. After HRP-conjugated specific antibody incubation, ECL reagent (Bio-Rad Laboratories Inc., Segrate (MI), Italy) was added to the immune complex and chemiluminescence was detected by ChemiDoc MP system (Bio-Rad Laboratories Inc., Segrate (MI), Italy). Optical densities of the bands were measured using ImageJ software (http://rsb.info.nih.gov/ij/ accessed on 15 March 2021) and normalized against bands relative to β-actin (1:5000, Abcam, Cambridge, UK).

[5] = test system: intact mice; experiment: Preliminary experiments on antidepressant effects in intact mice; assay type: in vivo; conditions: unpublished observations
Experimental: as §1

[6] = test system: Caco-2 cells; parameters: method as in PMID 19010411; conditions: in vitro model to simulate human intestinal absorption; cited from earlier work

Crossing of the blood brain barrier ([1]; sublingual or intranasal): rapidly crossed the blood brain barrier
Time of highest cerebral AKBA concentrations after administration ([1]; sublingual or intranasal, sampled at 5, 15, 30 min): 5 min
Locomotion in the open field test [3]: no difference
SMILES: CC(=O)O[C@@H]1CC[C@@]2(C)[C@@H](CC[C@]3(C)[C@@H]2C(=O)C=C2[C@@H]4[C@@H](C)[C@H](C)CC[C@]4(C)CC[C@]23C)[C@@]1(C)C(=O)O [AKBA, 3-O-acetyl-11-keto-β-boswellic acid]
Cerebral AUCs, sublingual vs intranasal ([1]; same dose by both routes): sublingual route of administration was characterized by higher bioavailability
Cerebral AKBA levels (whole brain) ([1]; sublingual vs intranasal, 5, 15 and 30 min after administration): significantly higher after sublingual administration compared to intranasal
Immobility time in the tail suspension test [2]: prevented such an effect
NF-kB p65 content in the HIPP (optical density normalized to actin) ([4]; HIPP): prevented such an increase
NF-kB p65 levels in the PFC (optical density normalized to actin) ([4]; PFC): prevented such an increase
Lowest dose showing antidepressant effects on intact mice [5]: 5 mg/kg
Permeability in Caco-2 cells [6]: low permeability
